Source: US9999619B2, “Piperidin-4-yl azetidine derivatives as JAK1 inhibitors” (Incyte Corporation, priority 2010, dated 2018)

Key:
Format in all cases: biochemical
[1] = target: Jak2 (a.a. 828-1132) (Homo sapiens (Human), UniProt O60674); assay: In vitro JAK kinase assay (HTRF, phosphorylation of a biotinylated peptide), JAK2; conditions: measured at 1 mM ATP
Protocol: (§1) Compounds herein were tested for inhibitory activity of JAK targets according to the following in vitro assay described in Park et al., Analytical Biochemistry 1999, 269, 94-104. The catalytic domains of human JAK1 (a.a. 837-1142), Jak2 (a.a. 828-1132) and Jak3 (a.a. 781-1124) with an N-terminal His tag were expressed using baculovirus in insect cells and purified. The catalytic activity of JAK1, JAK2 or JAK3 was assayed by measuring the phosphorylation of a biotinylated peptide. The phosphorylated peptide was detected by homogenous time resolved fluorescence (HTRF). […] Reactions were carried out at room temperature for 1 hr and then stopped with 20 μL 45 mM EDTA, 300 nM SA-APC, 6 nM Eu-Py20 in assay buffer (Perkin Elmer, Boston, Mass.). Binding to the Europium labeled antibody took place for 40 minutes and HTRF signal was measured on a Fusion plate reader (Perkin Elmer, Boston, Mass.).

[2] = target: human JAK1 (a.a. 837-1142) (Homo sapiens, UniProt P23458); assay: In vitro JAK kinase assay (HTRF, phosphorylation of a biotinylated peptide), JAK1; conditions: measured at 1 mM ATP
Protocol: as §1

[3] = target: human JAK1 (a.a. 837-1142); assay: as above; conditions: ratio of JAK2 IC50 to JAK1 IC50, measured at 1 mM ATP
Protocol: as §1

Chain of Jak2 (a.a. 828-1132) (O60674 828-1132): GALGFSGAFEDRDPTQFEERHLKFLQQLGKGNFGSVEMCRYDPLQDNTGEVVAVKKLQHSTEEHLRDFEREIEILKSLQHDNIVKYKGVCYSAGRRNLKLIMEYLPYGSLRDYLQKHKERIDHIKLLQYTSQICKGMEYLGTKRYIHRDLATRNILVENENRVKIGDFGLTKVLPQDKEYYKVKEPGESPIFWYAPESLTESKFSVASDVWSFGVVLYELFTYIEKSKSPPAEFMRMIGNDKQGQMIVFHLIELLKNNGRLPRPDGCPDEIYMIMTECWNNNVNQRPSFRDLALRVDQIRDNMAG

IC50 [1] [nM] | IC50 [2] [nM] | IC50 Ratio JAK2/JAK1 [3] | Structure (SMILES)
50 to 100 | ≤ 5 | 20.9 | N#CCC1(n2cc(-c3ncnc4[nH]ccc34)cn2)CN([C@@H]2CCN(C(=O)c3ccnc(C(F)(F)F)c3F)C[C@@H]2F)C1 (relative stereo) [Example 361, {1-{cis-3-Fluoro-1-[3-fluoro-2-(trifluoromethyl)isonicotinoyl]piperidin-4-yl}-3-[4-(7H-pyrrolo[2,3-d]pyrimidin-4-yl)-1H-pyrazol-1-yl]azetidin-3-yl}acetonitrile]
50 to 100 | ≤ 5 | 22.4 | N#CCC1(n2cc(-c3ncnc4[nH]ccc34)cn2)CN([C@@H]2CCN(C(=O)c3ccnc(C(F)(F)F)n3)C[C@@H]2F)C1 (relative stereo) [Example 362, {1-(cis-3-Fluoro-1-{[2-(trifluoromethyl)pyrimidin-4-yl]carbonyl}piperidin-4-yl)-3-[4-(7H-pyrrolo[2,3-d]pyrimidin-4-yl)-1H-pyrazol-1-yl]azetidin-3-yl}acetonitrile]
 | ≤ 5 | 5.0 | CC1CC(N2CC(CC#N)(n3cc(-c4ncnc5[nH]ccc45)cn3)C2)CCN1C(=O)c1cccc(F)c1 (single isomer, unassigned) [Example 149, {1-[1-(3-fluorobenzoyl)-2-methylpiperidin-4-yl]-3-[4-(7H-pyrrolo[2,3-d]pyrimidin-4-yl)-1H-pyrazol-1-yl]azetidin-3-yl}acetonitrile]
 | ≤ 5 | 7.0 | CC1CC(N2CC(CC#N)(n3cc(-c4ncnc5[nH]ccc45)cn3)C2)CCN1C(=O)c1cccc(F)c1 (single isomer, unassigned) [Example 150, {1-[1-(3-fluorobenzoyl)-2-methylpiperidin-4-yl]-3-[4-(7H-pyrrolo[2,3-d]pyrimidin-4-yl)-1H-pyrazol-1-yl]azetidin-3-yl}acetonitrile]
 |  | 8.3 | CC1CC(N2CC(CC#N)(n3cc(-c4ncnc5[nH]ccc45)cn3)C2)CCN1Cc1ccc(N(C)C)c(C#N)c1F (single isomer, unassigned) [Example 242, 3-[(4-{3-(cyanomethyl)-3-[4-(7H-pyrrolo[2,3-d]pyrimidin-4-yl)-1H-pyrazol-1-yl]azetidin-1-yl}-2-methylpiperidin-1-yl)methyl]-6-(dimethylamino)-2-fluorobenzonitrile]
 |  | 6.4 | CC1CC(N2CC(CC#N)(n3cc(-c4ncnc5[nH]ccc45)cn3)C2)CCN1Cc1ccc(N(C)C)c(C#N)c1F (single isomer, unassigned) [Example 243, 3-[(4-{3-(cyanomethyl)-3-[4-(7H-pyrrolo[2,3-d]pyrimidin-4-yl)-1H-pyrazol-1-yl]azetidin-1-yl}-2-methylpiperidin-1-yl)methyl]-6-(dimethylamino)-2-fluorobenzonitrile]
50 to 100 | ≤ 5 | 12.3 | N#CCC1(n2cc(-c3ncnc4[nH]ccc34)cn2)CN(C2CCN(C(=O)c3ccc(-c4ccc5ncccc5c4)c(F)c3)CC2)C1 [Example 2, {1-[1-(3-Fluoro-4-quinolin-6-ylbenzoyl)piperidin-4-yl]-3-[4-(7H-pyrrolo[2,3-d]pyrimidin-4-yl)-1H-pyrazol-1-yl]azetidin-3-yl}acetonitrile]
10 to 50 | ≤ 5 | 11.0 | N#CCC1(n2cc(-c3ncnc4[nH]ccc34)cn2)CN(C2CCN(C(=O)c3cc(F)cc(F)c3)CC2)C1 [Example 3, {1-[1-(3,5-difluorobenzoyl)piperidin-4-yl]-3-[4-(7H-pyrrolo[2,3-d]pyrimidin-4-yl)-1H-pyrazol-1-yl]azetidin-3-yl}acetonitrile]
50 to 100 | 5 to 20 | 10.2 | N#CCC1(n2cc(-c3ncnc4[nH]ccc34)cn2)CN(C2CCN(C(=O)c3cc(F)c(F)c(F)c3)CC2)C1 [Example 4, {3-[4-(7H-pyrrolo[2,3-d]pyrimidin-4-yl)-1H-pyrazol-1-yl]-1-[1-(3,4,5-trifluorobenzoyl)piperidin-4-yl]azetidin-3-yl}acetonitrile]
10 to 50 | ≤ 5 | 12.0 | COc1ccc(C(=O)N2CCC(N3CC(CC#N)(n4cc(-c5ncnc6[nH]ccc56)cn4)C3)CC2)cc1F [Example 5, {1-[1-(3-fluoro-4-methoxybenzoyl)piperidin-4-yl]-3-[4-(7H-pyrrolo[2,3-d]pyrimidin-4-yl)-1H-pyrazol-1-yl]azetidin-3-yl}acetonitrile]
10 to 50 | ≤ 5 | 14.3 | N#CCC1(n2cc(-c3ncnc4[nH]ccc34)cn2)CN(C2CCN(C(=O)c3ccc(O)c(F)c3)CC2)C1 [Example 6, {1-[1-(3-fluoro-4-hydroxybenzoyl)piperidin-4-yl]-3-[4-(7H-pyrrolo[2,3-d]pyrimidin-4-yl)-1H-pyrazol-1-yl]azetidin-3-yl}acetonitrile]
≤ 10 | ≤ 5 | 10.8 | N#CCC1(n2cc(-c3ncnc4[nH]ccc34)cn2)CN(C2CCN(C(=O)c3cccc(C(F)(F)F)c3F)CC2)C1 [Example 7, {1-{1-[2-fluoro-3-(trifluoromethyl)benzoyl]piperidin-4-yl}-3-[4-(7H-pyrrolo[2,3-d]pyrimidin-4-yl)-1H-pyrazol-1-yl]azetidin-3-yl}acetonitrile]
50 to 100 | 5 to 20 | 11.0 | N#CCC1(n2cc(-c3ncnc4[nH]ccc34)cn2)CN(C2CCN(C(=O)C3CCCCC3)CC2)C1 [Example 8, {1-[1-(cyclohexylcarbonyl)piperidin-4-yl]-3-[4-(7H-pyrrolo[2,3-d]pyrimidin-4-yl)-1H-pyrazol-1-yl]azetidin-3-yl}acetonitrile]
10 to 50 | ≤ 5 | 3.2 | N#CCC1(n2cc(-c3ncnc4[nH]ccc34)cn2)CN(C2CCN(C(=O)c3ccccc3)CC2)C1 [Example 9, {1-(1-benzoylpiperidin-4-yl)-3-[4-(7H-pyrrolo[2,3-d]pyrimidin-4-yl)-1H-pyrazol-1-yl]azetidin-3-yl}acetonitrile]
10 to 50 | ≤ 5 |  | N#CCC1(n2cc(-c3ncnc4[nH]ccc34)cn2)CN(C2CCN(C(=O)Nc3ccc(F)cc3C(F)(F)F)CC2)C1 [Example 154, 4-{3-(Cyanomethyl)-3-[4-(7H-pyrrolo[2,3-d]pyrimidin-4-yl)-1H-pyrazol-1-yl]azetidin-1-yl}-N-[4-fluoro-2-(trifluoromethyl)phenyl]piperidine-1-carboxamide]
 |  | 1.8 | CC1CC(N2CC(CC#N)(n3cc(-c4ncnc5[nH]ccc45)cn3)C2)CCN1Cc1c(F)cccc1Cl (stereo not shown) [Example 244, {1-[1-(2-chloro-6-fluorobenzyl)-2-methylpiperidin-4-yl]-3-[4-(7H-pyrrolo[2,3-d]pyrimidin-4-yl)-1H-pyrazol-1-yl]azetidin-3-yl}acetonitrile]
 |  | 1.5 | CC1CC(N2CC(CC#N)(n3cc(-c4ncnc5[nH]ccc45)cn3)C2)CCN1Cc1c(F)cccc1Cl (stereo not shown) [Example 245, {1-[1-(2-chloro-6-fluorobenzyl)-2-methylpiperidin-4-yl]-3-[4-(7H-pyrrolo[2,3-d]pyrimidin-4-yl)-1H-pyrazol-1-yl]azetidin-3-yl}acetonitrile]
50 to 100 | ≤ 5 |  | [2H]C1(N2CC(CC#N)(n3cc(-c4ncnc5[nH]ccc45)cn3)C2)CCN(C(=O)c2ccnc(C(F)(F)F)c2F)CC1 [Example 363, {1-{1-[3-Fluoro-2-(trifluoromethyl)isonicotinoyl]-4-deuteropiperidin-4-yl}-3-[4-(7H-pyrrolo[2,3-d]pyrimidin-4-yl)-1H-pyrazol-1-yl]azetidin-3-yl}acetonitrile]
50 to 100 | ≤ 5 |  | [2H]C1([2H])CN(C(=O)c2ccnc(C(F)(F)F)c2F)CC([2H])([2H])C1([2H])N1CC(CC#N)(n2cc(-c3ncnc4[nH]ccc34)cn2)C1 [Example 364, {1-{1-[3-Fluoro-2-(trifluoromethyl)isonicotinoyl]3,3,4,5,5-pentadeuteropiperidin-4-yl}-3-[4-(7H-pyrrolo[2,3-d]pyrimidin-4-yl)-1H-pyrazol-1-yl]azetidin-3-yl}acetonitrile]

Structure (SMILES) | IC50 [1] [nM] | IC50 [2] [nM] | IC50 Ratio JAK2/JAK1 [3]
N#CCC1(n2cc(-c3ncnc4[nH]ccc34)cn2)CN(C2CCN(C(=O)c3ccc(-c4cccc5cccnc45)c(F)c3)CC2)C1 [Example 132, {1-[1-(3-fluoro-4-quinolin-8-ylbenzoyl)piperidin-4-yl]-3-[4-(7H-pyrrolo[2,3-d]pyrimidin-4-yl)-1H-pyrazol-1-yl]azetidin-3-yl}acetonitrile] | ≤ 10 |  | 5.8
N#CCC1(n2cc(-c3ncnc4[nH]ccc34)cn2)CN(C2CC3CCC(C2)N3C(=O)C2CCCCC2)C1 (stereo not shown) [Example 147, {1-[8-(cyclohexylcarbonyl)-8-azabicyclo[3.2.1]oct-3-yl]-3-[4-(7H-pyrrolo[2,3-d]pyrimidin-4-yl)-1H-pyrazol-1-yl]azetidin-3-yl}acetonitrile] | ≤ 10 | ≤ 5 | 
N#CCC1(n2cc(-c3ncnc4[nH]ccc34)cn2)CN(C2CCN(Cc3ccc(F)cc3F)CC2)C1 [Example 217, {1-[1-(2,4-difluorobenzyl)piperidin-4-yl]-3-[4-(7H-pyrrolo[2,3-d]pyrimidin-4-yl)-1H-pyrazol-1-yl]azetidin-3-yl}acetonitrile] |  |  | 5.8
